# Reference: patent US8399475B2, “Crystalline and amorphous forms of naltrexone hydrochloride” (Mallinckrodt LLC, priority 2007, dated 2013)
# Test: Solid-state stability / form conversion under wet or high humidity conditions
SMILES,humidity at which the form converts to Form II (exposure of solid to humidity),stability under wet and/or high humidity environments (compared with non-hydrated forms)
"Cl.O=C1CC[C@@]2(O)[C@H]3Cc4ccc(O)c5c4[C@@]2(CCN3CC2CC2)[C@H]1O5 [Form I, naltrexone hydrochloride]",above 70% RH.,–
"Cl.O=C1CC[C@@]2(O)[C@H]3Cc4ccc(O)c5c4[C@@]2(CCN3CC2CC2)[C@H]1O5 [Form II, naltrexone hydrochloride]",–,more stable
